# Test results: patent US9084782B2, “Chemical inhibitors of cholesterol biosynthesis and venous angiogenesis” (The Regents of the University of California, priority 2011, dated 2015)
# “Also recorded” adds a separate entry of the source.
# What was measured:
# [1] = tested on: HMGCR pathway; assay: Quantitative RT-PCR of aplexone-treated embryos; format: in vivo, zebrafish; conditions: qPCR, GAPDH-normalized
# Experimental: (§1) Embryos at the 5-somite stage were treated with 0.4% DMSO (control) or 10 μM of aplexone in 0.4% DMSO and total RNA was isolated using the RNAeasy micro kit (Qiagen) at 30 hpf. Microarray analysis was performed in triplicate using the Affymetrix Zebrafish GeneChip, representing 15,617 genes. Synthesis and labeling of antisense RNA was performed as recommended by the array manufacturer using kits from Invitrogen for double-stranded cDNA synthesis, Enzo Life Sciences for transcription and labeling of antisense RNA and Affymetrix for probe purification and hybridization controls. Microarray hybridization data were analyzed using scripts written in the statistical programming language R (Team, 2009). Differentially expressed genes (DEGs) were identified using a linear model and multiple testing correction from the limma package (Smyth, 2004). The expression values were obtained using the robust multi array algorithm (Irizarry et al., 2003).
# Quantitative RT-PCR was performed as follows. First strand cDNA was synthesized using the SuperScript™ first-strand synthesis system for RT-PCR (Invitrogen) and relative expression levels of genes were determined using iQ SYBR Green Supermix and an iCycler (Bio-Rad Laboratories). GAPDH was used for normalization.
# [2] = tested on: Tg(kdrl:GFP) zebrafish embryos; assay: Caudal vein plexus (CVP) formation / venous angiogenesis in Tg(kdrl:GFP) zebrafish embryos; format: in vivo
# Excerpt: Images of GFP expression in Tg(kdrl:GFP) embryos were acquired using a Zeiss SV-11 epifluorescence microscope. Confocal images were acquired using a Carl Zeiss Laser Scanning Systems LSM510 equipped with 20× air, 20× water or 40× water immersion objectives. For single time point confocal images, embryos were anesthetized with 0.01% tricaine and embedded in 1% agarose. When capturing time-lapse confocal movies, embryos were mounted in 3.5% methylcellulose (Sigma-Aldrich) and imaged for 5 hrs on a heated stage at 28.5° C. The images obtained were analyzed using the Zeiss LSM Image Brower version 4 and Image J.
# A synthetic chemical library containing 168 compounds (Castellano et al., 2007) and 300 chemicals from Biomol International LP, consisting of 72 ion channel inhibitors (Cat No. 2805), 84 kinase/phosphatase inhibitors (Cat No. 2831), 84 orphan ligands (Cat No. 2825), and 60 endocannabinoids (Cat No. 2801) were screened. The synthetic small molecules were prepared through nucleophilic phosphine catalysis of allenoates (Zhu et al., 2003). Four Tg(kdrl:GFP) embryos were placed into each well of 96-well plates containing a 10 μM solution of each chemical compound dissolved in embryo buffer with 0.1% DMSO. The embryos were raised at 28.5° C. and examined for defects in blood vessel development at 1 and 2 days after treatment. Standard parameters such as numbers of somites and head to body angle were used to determine the stages of zebrafish embryos (Kimmel et al., 1995).
# (§2) Aplexone treatment described in this study was carried out at a concentration of 10 μM starting at 10 hpf unless otherwise specified.
# 8 ng tnnt2 MO (Gene Tools) (Sehnert et al., 2002), 3 nl of 4 mM GGTI-2133 (Calbiochem), 3 nl of 5 mM L744,832 (Calbiochem) and 1 nl of 2M mevalonate (Sigma-Aldrich) were injected into 1-2 cell stage embryos.
# The library of 168 compounds^24 prepared through the nucleophilic phosphine catalysis of allenes were screened using Tg(kdrl:GFP) zebrafish. Four embryos were placed in each well of 96-well plates containing a 10 uM solution of each chemical compound dissolved in embryo buffer with 0.1% DMSO. The embryos were raised at 28.5° C. and defects in blood vessel development were examined at 1 and 2 days after fertilization.
# [3] = tested on: HMGCR pathway; assay: Microarray expression profiling of aplexone-treated embryos (Affymetrix Zebrafish GeneChip); format: in vivo; conditions: 10 μM, RNA at 30 hpf
# Experimental: as §1
# [4] = tested on: zebrafish embryos; assay: Overall phenotype of treated zebrafish embryos (body shape, circulation); format: in vivo
# Experimental: (§3) A,B,C, Overall phenotype of control and aplexone-treated embryos at 30 hpf. A′,B′,C′, Vasculature in trunk. […] D-E, Germ cells in control and aplexone treated embryos at 24 hpf were detected by in situ hybridization using the nanos probe. F, The percentage of embryos with ectopic primordial germ cells in control (n=26), 5 μM (n=13), and 10 μM (n=14) aplexone-treated embryos. […] I, The percentage of embryos with cardia bifida in control (n=16) and 10 μM-(n=17), 20 μM-(n=17) and 30 μM-(n=18) aplexone-treated embryos.
# as §2
# [5] = tested on: cardiomyocytes; assay: Cardiomyocyte migration / heart tube formation in Tg(myl7:GFP) embryos; format: in vivo, zebrafish; conditions: 30 μM aplexone
# Experimental: as §3
# [6] = tested on: HMGCR pathway; assay: Cholesterol assay in embryo lysate (Amplex Red); format: in vivo, zebrafish
# Experimental: The yolk was removed from embryos by vortexing in calcium-free Ringer's solution with 1 mM EDTA at 4° C. The embryos were then pelleted and washed with fresh calcium free Ringer's solution 5 times before being resuspended in cholesterol assay reaction buffer and were then lysed by sonication using a Sonifier 450 (Branson). Cholesterol levels in the embryo lysate were measured with an Amplex Red Cholesterol Assay Kit (Invitrogen) and Flex station II (Bucher Biotec). The total protein concentration of the embryo lysate was measured using a DC protein assay (Bio-Rad Laboratories) and SpectraMax plus (Molecular Devices).
compound,measurement,setting,value
CC(=O)C1=CCC(c2ccccc2)N(S(=O)(=O)c2ccc(C)cc2)C1 (stereo not drawn) [aplexone],fold change 3-hydroxy-3-methylglutaryl-Coenzyme A reductase (HMGCR),[1],6.7 fold
same,fold change 3-hydroxy-3-methylglutaryl-Coenzyme A synthase 1 (HMGCS),[1],2.8 fold
same,fold change 7-dehydrocholesterol reductase (DHCR7),[1],2.5 fold
same,"fold change cytochrome P450, family 51 (CYP51)",[1],4.4 fold
same,fold change farnesyl diphosphate synthetase (FDPS),[1],2.2 fold
same,fold change insulin induced gene 1 (INSIG),[1],5.1 fold
same,fold change sterol-C4-methyl oxidase-like (SC4MOL),[1],5.6 fold
same,CVP formation at suboptimal level,[2]; 2 μM single agent,normal CVP
same,formation of the CVP,[2]; 10 μM aplexone from 10 hpf,severely defective
same,secondary ISVs (venous-derived sprouts),"[2]; 10 μM from 10 hpf, 2-day-old embryos",absent
same,fold change 3-hydroxy-3-methylglutaryl-Coenzyme A synthase 1 (HMGCS),[3],2.0 fold
same,fold change Krueppel-like factor 11 (TIEG-2),[3],2.1 fold
same,fold change carbonyl reductase 1-like,[3],2.1 fold
same,"fold change coronin, actin binding protein, 1A",[3],−2.1 fold
same,"fold change cytochrome P450, family 51 (CYP51)",[3],2.8 fold
same,fold change farnesyl diphosphate synthetase (FDPS),[3],2.0 fold
same,fold change fatty acid desaturase 2,[3],2.4 fold
same,fold change glutamate dehydrogenase 1a,[3],2.2 fold
same,fold change glutathione S-transferase,[3],3.2 fold
same,fold change glutathione reductase like,[3],2.2 fold
same,fold change insulin induced gene 1 (INSIG),[3],2.6 fold
same,fold change insulin-like growth factor binding protein 1,[3],2.1 fold
same,fold change lymphocyte cytosolic plastin 1,[3],−2.7 fold
same,fold change lysozyme,[3],−2.7 fold
same,fold change myosin regulatory light chain interacting protein,[3],−2.1 fold
same,fold change nephrosin,[3],−2.4 fold
same,fold change selenoprotein W,[3],3.1 fold
same,fold change sterol-C4-methyl oxidase-like (SC4MOL),[3],2.0 fold
same,fold change sulfotransferase,[3],3.0 fold
same,body shape,[4]; 10 μM aplexone,relatively normal body shape
same,embryo length,[4]; 30 μM aplexone,shorter than control embryos
same,blood circulation,[4]; aplexone-treated embryos,lack blood circulation
same,fusion of cardiac primordia / cardiomyocyte migration to midline,[5],defects in the fusion of the bilaterally positioned cardiac primordia; also recorded: fail to migrate to midline
same,efficiency of cholesterol reduction compared with atorvastatin,[6]; higher concentration (40 uL),more efficient
same,efficiency of cholesterol reduction compared with atorvastatin,[6]; lower concentration (10 uL),as efficient as atorvastatin
same,embryonic cholesterol levels,[6]; relative to 0.4% DMSO control,reduced embryonic cholesterol levels to a comparable degree as treatment with atorvastatin; also recorded: reduce cholesterol level significantly
